Results on ten molecules are retold here after patent publication US20260115139A1, “Amino Acid-Containing Ionizable Lipids for the Delivery of Therapeutic Agents” (NanoVation Therapeutics Inc., priority 2022, published 2026).

Structures are written as SMILES.

System in the first experiment: not given
Experiment: not given
The settings on record: delivery of siRNA; background statement; cited from earlier work.
As to `CCCCC/C=C\C/C=C\CCCCCCCCC(CCCCCCCC/C=C\C/C=C\CCCCC)OC(=O)CCCN(C)C` [lipid 1], the “siRNA required compared with KC2” value was “about 3 times less”.

A further experiment deals with liver. As to the kind of experiment: In vivo delivery of luciferase mRNA LNPs, luminescence in liver. Particulars: LNP 50/10/38.5/1.5 mol % ionizable lipid/DSPC/chol/PEG-DMG, N/P=6, luciferase mRNA 1 mg/kg intravenous, CD-1 mice, 4 hours post-injection. As to the method:
The mRNA dose was 1 mg/kg.
Consider `CCCCCCCCC(CCCCCC)C(=O)N(C)CC(=O)OCCCCCC1(CCCCCOC(=O)CN(C)C(=O)C(CCCCCC)CCCCCCCC)OCC(CCOC(=O)CCCN(C)C)O1` (stereo not shown) [lipid 17, (4-(2-((4-(dimethylamino)butanoyl)oxy)ethyl)-1,3-dioxolane-2,2-diyl)bis(pentane-5,1-diyl) bis(2-(2-hexyl-N-methyldecanamido)acetate)], for which the “luminescence intensity per mg liver compared with the MC3 benchmark (lipid 1)” value is on record as “higher”. With `CCCCCCCCC(CCCCCC)C(=O)OCCCCCC(CCCCCOC(=O)CN(C)C(=O)CC(CCCCCCC)CCCCCCC)N(C)CCCCO` (stereo not shown) [lipid 25, 11-((N-(3-Heptyldecanoyl)-N-methylglycyl)oxy)-6-((4-hydroxybutyl)(methyl)amino)-undecyl 2-hexyldecanoate], the “luminescence intensity per mg liver compared with the MC3 benchmark (lipid 1)” value is “higher”. Take `CCCCCCCCC(CCCCCC)C(=O)N(C)CC(=O)OCCCCCC(CCCCCOC(=O)CN(C)C(=O)C(CCCCCC)CCCCCCCC)OC(=O)CCCC(=O)OCCCN(C)C` (stereo not shown) [lipid 19, 9,31-dihexyl-11,29-dimethyl-10,13,27,30-tetraoxo-14,26-dioxa-11,29-diazanonatriacon-tan-20-yl (3-(dimethylamino)propyl) glutarate]: the “luminescence intensity per mg liver compared with the MC3 benchmark (lipid 1)” value is “higher”. As to `CCCCCCCCC(CCCCCC)C(=O)OCCCCCC(CCCCCOC(=O)CN(C)C(=O)C(CCCCCC)CCCCCCCC)N(C)CCO` (stereo not shown) [lipid 24, 11-((N-(2-Hexyldecanoyl)-N-methylglycyl)oxy)-6-((2-hydroxyethyl)(methyl)amino)-undecyl 2-hexyldecanoate], the “luminescence intensity per mg liver compared with the MC3 benchmark (lipid 1)” value is “higher”. On the same count and under the same terms, the same measure for `CCCCCCCCC(CCCCCC)C(=O)OCCCCCC(CCCCCOC(=O)CN(C)C(=O)C(CCCCCC)CCCCCCCC)OC(=O)CCCN(C)C` (stereo not shown) [lipid 6, 6-((4-(Dimethylamino)butanoyl)oxy)-11-((N-(2-hexyldecanoyl)-N-methylglycyl)oxy)-undecyl 2-hexyldecanoate]: “higher”; for `CCCCCCCCC(CCCCCC)C(=O)OCCCCCC(CCCCCO)N(C)CCCCOC(=O)CN(C)C(=O)C(CCCCCC)CCCCCCCC` (stereo not shown) [lipid 36, 6-((4-((N-(2-Hexyldecanoyl)-N-methylglycyl)oxy)butyl)(methyl)amino)-11-hydroxy-undecyl 2-hexyldecanoate]: “higher”. Take `CCCCCCCCC(CCCCCC)CC(=O)N(C)CC(=O)OCCCCCC(CCCCCOC(=O)C(CCCCCC)CCCCCCCC)N(C)CCCCO` (stereo not shown) [lipid 27, 11-((N-(3-Hexylundecanoyl)-N-methylglycyl)oxy)-6-((4-hydroxybutyl)(methyl)-amino)-undecyl 2-hexyldecanoate]: the “luminescence intensity per mg liver compared with the MC3 benchmark (lipid 1)” value was “higher”. Still for that read-out and setting: next, `CCCCCCCCCC(=O)OCCCCCC(CCCCCOC(=O)CN(C)C(=O)CC(CCCCCC)CCCCCCCC)N(C)CCCCO` (stereo not shown) [lipid 33, 11-((N-(3-Hexylundecanoyl)-N-methylglycyl)oxy)-6-((4-hydroxybutyl)(methyl)-amino)-undecyl decanoate]: “higher”; `CCCCCCCCC(CCCCCC)C(=O)OCCCCCC(CCCCCOC(=O)CN(C)C(=O)C(CCCCCC)CCCCCCCC)N(C)CCCO` (stereo not shown) [lipid 23, 11-((N-(2-Hexyldecanoyl)-N-methylglycyl)oxy)-6-((3-hydroxypropyl)(methyl)amino)-undecyl 2-hexyldecanoate]: “higher”.
